Data published in patent US20090202497A1, “USE OF GLP-1, GLP-1 DERIVATIVES OR GLP-1 FRAGMENTS FOR SKIN REGENERATION, STIMULATION OF HAIR GROWTH, OR TREATMENT OF DIABETES” (The General Hospital Corporation, priority 2005, published 2009).

Key:
[1] = system: shaved New Zealand white rabbits; assay: Hair growth after intradermal peptide injection into the backs of shaved rabbits; format: in vivo, rabbit; conditions: for hair growth at the sites of injection: 100 μg intradermally in Freund's adjuvant, observed approximately 3-4 weeks after last injection
Protocol: 0.1 mg (100 μg) of the following peptides were injected intradermally into the backs of the shaved New Zealand white rabbits: synthetic mammalian GLP-1 (1-37), synthetic GLP-1 peptide fragment containing amino acid sequence 16-30 of GLP-1 (1-37) (amino acid numbering starts from histidine 1 of mammalian GLP-1 (1-37), synthetic rat GLP-2 peptide fragment containing amino acid sequence 9-24 of rat GLP-2 (amino acid numbering starts at histidine 1 of the rat GLP-2 sequence), rat IP-2 and synthetic mammalian glucagon. Sequences for rat GLP-2, rat IP-2 and mammalian glucagon are well known in the art, and are provided, for example, in U.S. Pat. No. 6,849,708, which is hereby wholly incorporated by reference (see, e.g., FIG. 1 of U.S. Pat. No. 6,849,708). The total amount of peptide was administered in 10-20 intradermal injections as an emulsification in Freund's adjuvant. Each peptide was tested in four rabbits, except for GLP-1 (1-37) that was injected into 5 rabbits. This amount of peptide was administered at 3 time intervals (100 μg at each time interval), one week apart. […] This effect was not observed in any of the rabbits that were immunized with any other of the above described peptides. […] The inventors observed enhanced hair growth upon intradermal injection of only GLP-1 (1-37) into rabbits.

[2] = system: cultured skin-derived cells; assay: cAMP luciferase reporter plasmid transfected into cultured skin-derived cells; format: cell-based, mouse; conditions: data not shown
[3] = system: P42/44 MAPK (ERK1/2); assay: Western immunoblot of ERK1/2 phosphorylation in primary skin cell cultures; format: cell-based, mouse; conditions: 10 nM GLP-1
Protocol: Cultures of C57B6/L mouse skin-derived cells were grown in 100 mm dishes to 80% confluence. Cultures were washed once with PBS and incubated with KRB buffer (115 mM NaCl, 5 mM KCl, 10 mM NaHCO3, 2.5 mM MgCl2, 2.5 mM CaCl2, 20 mM HEPES, pH 7.4) containing 0.5% bovine serum albumin (BSA) and 1 mM glucose at 37° C. for 1 hour. Cultures were then incubated with 10 nM GLP1 in the setting of no (0 mM), low (2.8 mM) or high (16.7 mM) glucose. Proteins were extracted with lysis buffer (50 mM Hepes pH 7.6, 160 mM NaCl, 20 mM sodium pyrophosphate, 20 mM glycerophosphate, 10 mM NaF, 2 mM sodium vanadate, […], and protease inhibitor cocktail). Ten (10) μg of protein per lane was electrophoresed in 4-12% Bis-Tris gels (Invitrogen Corp.) and transferred onto nitrocellulose membranes (Nitrobind, Osmotics, Inc., Minnetonka, Minn.) at 4° C. overnight. Membranes were blocked with 3% BSA in PBS with 0.2% Tween-80 for 1 hour at RT, incubated with mouse monoclonal anti-phospho-P42 MAPK antibody (1:2000 dilution) at 4° C. overnight, washed, and incubated with horseradish peroxidase-conjugated secondary antibody at RT for 1 hour. Immunostained proteins were detected using a the ECL chemiluminescence detection kit (Amersham Biosciences, Ltd., Buckinghamshire, England). […]

[4] = system: mouse skin-derived cells; assay: Differentiation of cultured skin-derived cells into insulin C-peptide producing cells (immunostaining); format: cell-based; conditions: differentiation media with GLP-1 (10 nM) for 30 days
Protocol: For in-vitro differentiation, after passaging for one month, mouse skin-derived cells were freshly plated and overlaid with differentiation medium composed of RPMI1640 containing 1% HEPES, 1% penicillin/streptomycin/fungizone, 1% pyruvate, 2% B-27 supplement, 2% FBS, […] MIN6 cells, provided by J. Miyazaki, were cultured as described (Miyazaki, J. et al., Endocrinology 127:126-32 (1990)).
For immunochemistry, 7 μm frozen sections were prepared from newborn C57BL/6 mouse skin, and skin-derived tissue culture cells were grown on coverslips. Tissues/coverslips were fixed with 4% paraformaldehyde at RT for 15 min. They were then rinsed with PBS containing 0.2% Triton X-100 and blocked with 3% normal donkey serum for 1 hour at RT. Tissues/coverslips were incubated with primary antibody at a 1:500 dilution at RT for 1 hour, rinsed with PBS containing 0.2% Triton X-100, and incubated with secondary (donkey) Cy2- or Cy3-conjugated antisera at RT for 1 hour. They were then washed with PBS and mounted with fluorescent mounting medium. […]
Mouse skin was minced and strained, and the resulting cells were used to establish primary cultures of mouse skin-derived cells. […] Immunoreactivity was detected with a Cy-3-conjugated secondary antibody.

[5] = system: cultured skin-derived cells; assay: fura-2 loading and perforated patch clamp monitoring of membrane potential and current; format: cell-based, mouse; conditions: perforated patch clamp; data not shown
Description: The cells were next loaded with the Ca2+ indicator fura-2, and changes in membrane potential and current were monitored using the perforated patch clamp technique.

[6] = system: cultured skin-derived cells; assay: cAMP levels in cell extracts after incubation with GLP-1; format: cell-based, mouse; conditions: incubation with GLP-1 for 5-30 min; data not shown
Protocol: To determine whether GLP-1 receptors are actively coupled to signal transduction pathways in skin-derived cells, GLP-1 was added to the cells and examined for the activation of cell signaling. Three signaling pathways were investigated: Cyclic AMP, calcium influx, and mitogen activated protein kinase phosphorylation (MAPK).
Since GLP-1Rs are classically recognized to couple to Gs and adenylyl cyclase to generate cAMP cell extracts were assayed for changes in levels of cAMP after their incubation with GLP-1 for 5-30 min.

rat GLP-2 peptide fragment containing amino acid sequence 9-24 of rat GLP-2: synthetic rat GLP-2 peptide fragment, residues 9-24, numbering from histidine 1 of rat GLP-2 (EMNTILDNLATRDFIN; Glucagon-like peptide 2; UniProt P06883 154-169, looked up, fragment) [reference compound]
hair growth at the sites of injection ([1]; 3 times one week apart): not observed

GLP-1 peptide fragment containing amino acid sequence 16-30 of GLP-1 (1-37): synthetic GLP-1 peptide fragment containing amino acid sequence 16-30 of GLP-1 (1-37) (VSSYLEGQAAKEFIA; Glucagon-like peptide 1; UniProt P01275 107-121, looked up, fragment)
hair growth at the sites of injection ([1]; 3 times one week apart): not observed

glucagon [mammalian glucagon, reference compound]
hair growth at the sites of injection ([1]; 3 times one week apart): not observed

glucagon-like peptide-1 [GLP-1 (1-37)]
activation of cAMP luciferase reporter [2]: failed to activate | phosphorylation of ERK1/2 (time course) ([3]; 0, 5, 15 or 30 minutes, 0, 2.8 or 16.7 mM glucose): prompt phosphorylation of ERK1/2 after 5 minutes followed by defervescence of phosphorylation at 15 and rephosphorylation at 30 min | glucose dependence of ERK1/2 phosphorylation ([3]; no, 2.8 mM or 16.7 mM glucose): glucose-dependent | cytoplasmic staining of insulin C-peptide [4]: Many of the cells showed cytoplasmic staining of C-peptide | membrane current in response to peptide [5]: No membrane current was detected | hair growth at the sites of injection ([1]; 3 times one week apart): luxurious hair growth was observed only at the sites of injection | rabbits showing hair growth at the sites of injection ([1]; 100 μg intradermally, 3 times one week apart, approximately 3-4 weeks after last injection): 4 out of 5 | hair growth in repeat experiments ([1]; repeat experiments at different seasons of the year): variable results | changes in levels of cAMP [6]: No changes in cAMP levels were observed
